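48-hour exposure; five concentrations; linearly interpolated endpoints. The concentration for full growth arrest is given as TGI.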
What was measured:
Experiment in all cases: NCI tumour cell line growth inhibition, 48 h
[1] = tested on: DMS 273 small cell lung
[2] = tested on: HOP-18 NSCLC
[3] = tested on: LOX IMVI melanoma
[4] = tested on: IGROV1 ovarian
[5] = tested on: SF-268 CNS
[6] = tested on: 786-0 renal
[7] = tested on: HCT-15 colon
[8] = tested on: HOP-62 NSCLC
[9] = tested on: NCI-H460 lung
[10] = tested on: M19-MEL melanoma
[11] = tested on: RXF 393 renal
[12] = tested on: SF-539 CNS
[13] = tested on: RXF-631 renal
[14] = tested on: HCT-116 colon
[15] = tested on: COLO 205 colon
[16] = tested on: SK-MEL-28 melanoma
[17] = tested on: M14 melanoma
[18] = tested on: HOP-92 NSCLC
[19] = tested on: SK-OV-3 ovarian
[20] = tested on: DMS 114 small cell lung
[21] = tested on: OVCAR-8 ovarian
[22] = tested on: U251 CNS
[23] = tested on: ACHN renal
[24] = tested on: UO-31 renal
[25] = tested on: XF 498 CNS
[26] = tested on: UACC-62 melanoma
[27] = tested on: KM20L2 colon
[28] = tested on: TK-10 renal
[29] = tested on: SF-295 CNS
[30] = tested on: SN12C renal
[31] = tested on: NCI-H23 lung
[32] = tested on: LXFL 529 NSCLC
[33] = tested on: HT29 colon
[34] = tested on: MOLT-4 leukemia
[35] = tested on: A498 renal
[36] = tested on: CAKI-1 renal
[37] = tested on: SNB-75 CNS
[38] = tested on: SK-MEL-2 melanoma
[39] = tested on: OVCAR-5 ovarian
[40] = tested on: K-562 leukemia
[41] = tested on: UACC-257 melanoma
[42] = tested on: RPMI-8226 leukemia
[43] = tested on: NCI-H522 lung
[44] = tested on: SNB-19 CNS
[45] = tested on: NCI-H226 lung
[46] = tested on: CCRF-CEM leukemia
[47] = tested on: OVCAR-3 ovarian
[48] = tested on: KM12 colon
[49] = tested on: HL-60(TB) leukemia
[50] = tested on: SNB-78 CNS
[51] = tested on: A549 NSCLC
[52] = tested on: MALME-3M melanoma
[53] = tested on: EKVX NSCLC
[54] = tested on: SW-620 colon
[55] = tested on: HCC-2998 colon
[56] = tested on: DLD-1 colon

Structure (SMILES): CCc1nc2ccccc2c(=O)n1/N=C(\N=Nc1ccc(Cl)cc1)c1ccccc1Cl
- TGI [1]: > 100 µM
- TGI [2]: > 100 µM
- TGI [3]: > 100 µM
- TGI [4]: > 100 µM
- TGI [5]: > 100 µM
- TGI [6]: > 100 µM
- TGI [7]: > 100 µM
- TGI [8]: > 100 µM
- TGI [9]: > 100 µM
- TGI [10]: > 100 µM
- TGI [11]: 72.5 µM
- TGI [12]: > 100 µM
- TGI [13]: > 100 µM
- TGI [14]: > 100 µM
- TGI [15]: > 100 µM
- TGI [16]: 80.4 µM
- TGI [17]: > 100 µM
- TGI [18]: 64.9 µM
- TGI [19]: > 100 µM
- TGI [20]: 74.2 µM
- TGI [21]: > 100 µM
- TGI [22]: > 100 µM
- TGI [23]: > 100 µM
- TGI [24]: 69.9 µM
- TGI [25]: 71.6 µM
- TGI [26]: > 100 µM
- TGI [27]: > 100 µM
- TGI [28]: > 100 µM
- TGI [29]: > 100 µM
- TGI [30]: > 100 µM
- TGI [31]: > 100 µM
- TGI [32]: 85.3 µM
- TGI [33]: > 100 µM
- TGI [34]: 96.4 µM
- TGI [35]: > 100 µM
- TGI [36]: > 100 µM

Structure (SMILES): CCOCNC(=O)N(COCC)COCC
- TGI [3]: > 100 µM
- TGI [4]: > 100 µM
- TGI [5]: > 100 µM
- TGI [37]: > 100 µM
- TGI [38]: > 100 µM
- TGI [39]: > 100 µM
- TGI [7]: > 100 µM
- TGI [8]: > 100 µM
- TGI [40]: > 100 µM
- TGI [41]: > 100 µM
- TGI [42]: > 100 µM
- TGI [10]: > 100 µM
- TGI [12]: > 100 µM
- TGI [43]: > 100 µM
- TGI [13]: > 100 µM
- TGI [14]: > 100 µM
- TGI [15]: > 100 µM
- TGI [16]: > 100 µM
- TGI [44]: > 100 µM
- TGI [17]: > 100 µM
- TGI [45]: > 100 µM
- TGI [46]: > 100 µM
- TGI [19]: > 100 µM
- TGI [47]: > 100 µM
- TGI [20]: > 100 µM
- TGI [21]: > 100 µM
- TGI [23]: > 100 µM
- TGI [24]: > 100 µM
- TGI [48]: > 100 µM
- TGI [49]: > 100 µM
- TGI [50]: > 100 µM
- TGI [25]: > 100 µM
- TGI [26]: > 100 µM
- TGI [27]: > 100 µM
- TGI [51]: > 100 µM
- TGI [52]: > 100 µM
- TGI [53]: > 100 µM
- TGI [54]: > 100 µM
- TGI [29]: > 100 µM
- TGI [55]: > 100 µM
- TGI [30]: > 100 µM
- TGI [32]: > 100 µM
- TGI [33]: > 100 µM
- TGI [56]: > 100 µM
- TGI [34]: > 100 µM
- TGI [35]: > 100 µM
- TGI [36]: > 100 µM

From PubChem BioAssay (NCI)
